We go through 18 compounds from US10584108B2, “Therapeutic compounds and methods of use thereof” (KUALITY HERBCEUTICS LLC, priority 2015, dated 2020).

For data set [1], the system named is NNK-induced O^6-mG in A/J mouse lung tissues. Briefly: Test A: in vivo effect on NNK-induced O^6-mG in A/J mouse lung tissues. As to conditions: A/J mice, compound 0.2 mg/g of diet for seven days, NNK 100 mg/kg i.p., lung tissue four hours after NNK. From the text: The ability of a compound of the invention to effect NNK-induced O^6-mG in A/J mouse lung tissues may be determined using pharmacological models which are well known to the art, or using Test A described below.
General Procedure of the In Vivo Effect on NNK-induced O^6-mG in A/J Mouse Lung Tissues
Five-six week old A/J mice were purchased from Jackson Lab. After one week of acclimatization, mice were randomized into different groups. Mice were given to the AIN-G powdered diet supplemented with the corresponding compound at a dose of 0.2 mg/g of diet for seven days. Subsequently, with the exception of mice in the negative control groups, animals were given NNK (100 mg/kg of bodyweight at the beginning of Day 7 via i.p. injection) (control mice will be given saline). Four hours NNK administration, mice in each group were euthanized with serum, urine, lung and liver tissues collected. O^6-mG DNA adducts in the lung tissues were quantified following established procedures (1, 2). The relative amount of reduction was calculated as the percentage of reduction relative the amount of O^6-mG in the NNK-treated positive control group.

The subject of data set [2] is CYP1A1 mRNA in Hepe1c1c7 cells. Description: Test B: in vitro effect on CYP1A1 activation (CYP1A1 mRNA by q-RT PCR). Particulars: 5 μM in 0.5% DMSO, ratio treated to untreated, normalized to GAPDH mRNA. Type of data set: cell-based. The protocol:
The ability of a compound of the invention to effect CYP1A1 activation may be determined using pharmacological models which are well known to the art, or using Test B described below.
General Procedures of the In Vitro Effect on CYP1A1 Activation
Hepe1c1c7 cells were cultured under standard conditions and seeded in 6-well plate. After complete attachment (12-24 hours after seeding), the cells were treated with the corresponding compounds at the concentration of 5 μM, supplemented in 0.5% DMSO. Cells were trypsinized and pelleted. mRNAs were isolated. The relative amount of CYP1A1 mRNA were quantified via q-RT PCR and normalized to the amount of GAPDH mRNA from the same sample. Induction of CYP1A1 mRNA is defined as the ratio of CYP1A1 mRNA between treated samples to the untreated sample.

The subject of data set [3] is NNK-induced lung tumorigenesis. Particulars: background statement, literature; cited from earlier work.
Data set [4] has as its system NNK-induced DNA damage (O^6-mG). Particulars: background statement, literature; cited from earlier work.
The target in data set [5] is T1, aryl hydrocarbon receptors (Homo sapiens, UniProt P35869).
T1 sequence (P35869 11-848): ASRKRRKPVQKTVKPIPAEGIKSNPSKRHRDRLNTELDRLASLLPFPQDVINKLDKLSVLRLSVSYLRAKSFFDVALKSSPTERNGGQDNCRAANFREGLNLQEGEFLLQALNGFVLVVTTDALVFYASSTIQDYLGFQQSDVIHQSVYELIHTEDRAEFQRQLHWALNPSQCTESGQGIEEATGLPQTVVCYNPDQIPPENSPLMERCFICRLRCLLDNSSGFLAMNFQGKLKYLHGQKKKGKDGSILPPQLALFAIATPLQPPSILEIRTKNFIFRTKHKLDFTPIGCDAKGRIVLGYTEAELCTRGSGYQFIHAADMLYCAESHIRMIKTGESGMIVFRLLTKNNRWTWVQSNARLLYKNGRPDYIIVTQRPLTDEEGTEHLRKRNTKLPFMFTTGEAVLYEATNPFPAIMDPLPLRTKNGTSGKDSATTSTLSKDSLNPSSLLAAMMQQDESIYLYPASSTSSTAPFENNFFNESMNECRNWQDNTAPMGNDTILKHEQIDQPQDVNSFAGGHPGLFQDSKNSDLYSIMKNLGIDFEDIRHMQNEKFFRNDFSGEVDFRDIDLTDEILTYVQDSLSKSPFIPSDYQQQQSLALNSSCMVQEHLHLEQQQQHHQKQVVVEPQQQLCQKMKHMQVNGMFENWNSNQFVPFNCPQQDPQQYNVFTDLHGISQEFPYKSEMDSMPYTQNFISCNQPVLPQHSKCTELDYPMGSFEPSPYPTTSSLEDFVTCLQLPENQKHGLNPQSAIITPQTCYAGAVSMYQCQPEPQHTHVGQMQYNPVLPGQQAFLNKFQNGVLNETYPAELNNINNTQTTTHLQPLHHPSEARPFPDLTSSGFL
Particulars: background statement, literature; cited from earlier work.

With `COC1=CC(=O)OC(CCc2ccc3c(c2)OCO3)C1` (stereo not drawn), the “Relative amount of reduction in O^6-mG (mean ± SD) % in comparison to NNK-treated control” value in data set [1] worked out at 72.7 ± 6.6%.

As for `COC1=CC(=O)O[C@H](CCc2ccc3c(c2)OCO3)C1`, the “Relative amount of reduction in O^6-mG (mean ± SD) % in comparison to NNK-treated control” value in data set [1] is 79.6 ± 1.5%.

For the compound `COC1=CC(=O)OC(/C=C/c2ccc3c(c2)OCO3)C1` (stereo not drawn), the “Relative amount of reduction in O^6-mG (mean ± SD) % in comparison to NNK-treated control” value in data set [1] amounted to 54.6 ± 1.2%. In data set [2], the “Induction of CYP1A1 mRNA” value amounted to 0.26 ± 0.01.

As to `COC1=CC(=O)CC(CCc2ccc3c(c2)OCO3)C1` (stereo not drawn), the “Relative amount of reduction in O^6-mG (mean ± SD) % in comparison to NNK-treated control” value in data set [1] stood at 63.7 ± 21.9%. Besides, the “Induction of CYP1A1 mRNA” value in data set [2] came out at 5.58 ± 0.55.

With `COC1=CC(=O)OC(CCc2ccc(OC)c(O)c2)C1` (stereo not drawn), the “Relative amount of reduction in O^6-mG (mean ± SD) % in comparison to NNK-treated control” value in data set [1] is recorded as −2.6 ± 14.7%. Moreover, the “Induction of CYP1A1 mRNA” value in data set [2] was 5.61 ± 0.40.

Consider `COC1=CC(=O)CC(CCc2ccc3c(c2)CCC3)C1` (stereo not drawn), for which the “Relative amount of reduction in O^6-mG (mean ± SD) % in comparison to NNK-treated control” value in data set [1] was 11.8 ± 23.1%.

As for `COC1=CC(=O)OC(CCc2ccc3c(c2)OCO3)C1C` (stereo not drawn), the “Induction of CYP1A1 mRNA” value in data set [2] was found to be 2.16 ± 0.11.

For `COC1=CC(=O)OC(CCc2ccc3c(c2)CCC3)C1` (stereo not drawn), the “Relative amount of reduction in O^6-mG (mean ± SD) % in comparison to NNK-treated control” value in data set [1] stood at 29.7 ± 16.3%. Also, the “Induction of CYP1A1 mRNA” value in data set [2] amounted to 0.79 ± 0.02.

As to `COC1=C(C)C(=O)OC(CCc2ccc3c(c2)OCO3)C1` (stereo not drawn), in data set [1], the “Relative amount of reduction in O^6-mG (mean ± SD) % in comparison to NNK-treated control” value is listed as 65.3 ± 5.8%. Further, in data set [2], the “Induction of CYP1A1 mRNA” value is recorded as 0.59 ± 0.04.

For `O=C1C=C(O)CC(CCc2ccc3c(c2)OCO3)O1` (stereo not drawn), the “Relative amount of reduction in O^6-mG (mean ± SD) % in comparison to NNK-treated control” value in data set [1] worked out at 55.9 ± 19.7%. Also, in data set [2], the “Induction of CYP1A1 mRNA” value is 1.20 ± 0.1.

As for `O=C1C=CCC(CCc2ccc3c(c2)OCO3)O1` (stereo not drawn), in data set [1], the “Relative amount of reduction in O^6-mG (mean ± SD) % in comparison to NNK-treated control” value is recorded as 35.2 ± 31.8%. The “Induction of CYP1A1 mRNA” value in data set [2] was 5.94 ± 0.22.

For `COC1=CC(=O)OC(C)(CCc2ccc3c(c2)OCO3)C1` (stereo not drawn), the “Relative amount of reduction in O^6-mG (mean ± SD) % in comparison to NNK-treated control” value in data set [1] was 56.2 ± 8.1%. In addition, the “Induction of CYP1A1 mRNA” value in data set [2] is on record as 2.49 ± 0.08.

With `COC1=CC(=O)OC(CCc2ccc3c(c2)OCCO3)C1` (stereo not drawn), the “Relative amount of reduction in O^6-mG (mean ± SD) % in comparison to NNK-treated control” value in data set [1] is listed as 3.24 ± 13.4%. For the same compound, in data set [2], the “Induction of CYP1A1 mRNA” value stood at 3.73 ± 0.26.

For `COC1=CC(=O)O[C@@H](CCc2ccc3c(c2)OCO3)C1` [(+)-Dihydromethysticin], the “Block of NNK-induced lung tumorigenesis” value in data set [3] is “effectively block”. Besides, in data set [4], the “Inhibition of NNK-induced O^6-mG DNA damage” value is listed as “can be inhibited”.

On to `COC1=CC(=O)O[C@@H](CCc2ccc3c(c2)OCO3)C1` [dihydromethysticin], for which the “Activation of aryl hydrocarbon receptors” value in data set [5] is listed as “activate”.

Regarding `COC1=CC(=O)O[C@@H](CCc2ccc3c(c2)OCO3)C1` [drawing 26], the “Relative amount of reduction in O^6-mG (mean ± SD) % in comparison to NNK-treated control” value in data set [1] stood at 76.9 ± 2.6%. In data set [2], the “Induction of CYP1A1 mRNA” value was 1.88 ± 0.07.

For `COC1=CC(=O)OC(/C=C/c2ccc3c(c2)OCCO3)C1` (stereo not drawn) [drawing 40], in data set [1], the “Relative amount of reduction in O^6-mG (mean ± SD) % in comparison to NNK-treated control” value is 5.2 ± 13.0%. Further, in data set [2], the “Induction of CYP1A1 mRNA” value is given as 1.15 ± 0.02.

Take `COC1=CC(=O)OC(/C=C/c2ccc3c(c2)OCCO3)C1` (stereo not drawn) [drawing 65]: the “Relative amount of reduction in O^6-mG (mean ± SD) % in comparison to NNK-treated control” value in data set [1] is listed as 5.2 ± 13.0%.
